Experimental data from patent EP4624471A1, “PKMYT1 INHIBITOR, PREPARATION METHOD THEREFOR, AND PHARMACEUTICAL COMPOSITION AND USE THEREOF” (Shanghai Qilu Pharmaceutical Research and Development …, priority 2022, dated 2024).

These compounds were tested against T1, PKMYT1 enzyme (Homo sapiens, UniProt Q99640) (assay: PKMYT1 enzyme inhibition activity, ADP-GLO method). Conditions: PKMYT1 enzyme 10 nM, ATP 5 µM, 37°C 90 minutes; read-out: ADP-GLO IC50.
T1 construct: purchased Thermo Scientific A33387
T1 sequence (Q99640 1-499): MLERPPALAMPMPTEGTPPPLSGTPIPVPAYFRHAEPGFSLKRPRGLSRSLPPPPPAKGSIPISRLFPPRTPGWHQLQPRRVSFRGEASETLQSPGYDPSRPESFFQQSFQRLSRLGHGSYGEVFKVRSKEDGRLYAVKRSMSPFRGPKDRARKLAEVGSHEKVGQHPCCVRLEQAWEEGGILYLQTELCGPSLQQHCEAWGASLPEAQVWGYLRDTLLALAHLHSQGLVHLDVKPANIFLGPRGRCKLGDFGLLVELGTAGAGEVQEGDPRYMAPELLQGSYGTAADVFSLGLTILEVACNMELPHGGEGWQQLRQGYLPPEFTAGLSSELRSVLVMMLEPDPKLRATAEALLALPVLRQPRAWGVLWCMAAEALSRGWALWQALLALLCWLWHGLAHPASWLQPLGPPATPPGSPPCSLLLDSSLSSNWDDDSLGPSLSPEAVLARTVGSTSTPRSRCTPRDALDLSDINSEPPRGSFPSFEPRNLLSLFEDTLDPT
Assay type: biochemical

Structure (SMILES)	IC50
Cc1ccc(O)c(C)c1-n1c(N)c(C(N)=O)c2cnc(N3CCCCC3)nc21 [Example 13, 6-Amino-7-(3-hydroxy-2,6-dimethylphenyl)-2-(piperidin-1-yl)-7H-pyrrolo[2,3-d]pyrimidine-5-carboxamide]	12.2 nM
Cc1cc(F)c(O)c(C)c1-n1c(N)c(C(N)=O)c2c3c(cnc21)CCC3 (racemic) [Example 186]	7.41 nM
Cc1cc(F)c(O)c(C)c1-n1c(N)c(C(N)=O)c2cc(CO)c(C)nc21 [Example 164]	7.06 nM
Cc1cc(F)c(O)c(C)c1-n1c(N)c(C(N)=O)c2cc(C3CCOCC3)c(C)nc21 (atropisomer, axis not shown) [Example 163]	23.4 nM
Cc1cc2c(C(N)=O)c(N)n(-c3c(C)c(O)c(Cl)c(F)c3C)c2nc1C [Example 44, 2-Amino-1-(4-chloro-3-fluoro-5-hydroxy-2,6-dimethylphenyl)-5,6-dimethyl-1H-pyrrolo[2,3-b]pyridine-3-carboxamide]	11.8 nM
Cc1cc(F)c(O)c(C)c1-n1c(N)c(C(N)=O)c2cc(CC(C)C)cnc21 [Example 147]	13.6 nM
C=C(C)c1cc2c(C(N)=O)c(N)n(-c3c(C)cc(F)c(O)c3C)c2nc1C [Example 156]	26.4 nM
C=CCCc1cc2c(C(N)=O)c(N)n(-c3c(C)cc(F)c(O)c3C)c2nc1C [Example 157]	60.6 nM
Cc1ccc(O)c(C)c1-n1c(N)c(C(N)=O)c2cnc(C3=CCCCC3)nc21 [Example 9, 6-Amino-2-(cyclohex-1-en-1-yl)-7-(3-hydroxy-2,6-dimethylphenyl)-7H-pyrrolo[2,3-d]pyrimidine-5-carboxamide]	9.05 nM
C=Cc1cnc2c(c1)c(C(N)=O)c(N)n2-c1c(C)cc(F)c(O)c1C [Example 148]	7.32 nM
Cc1cc2c(C(N)=O)c(N)n(-c3c(C)cc(F)c(O)c3C)c2nc1CC(C)C [Example 151]	20.1 nM
Cc1cc2c(C(N)=O)c(N)n(-c3c(C)c(O)cc(F)c3C)c2nc1C(C)C [Example 139]	143 nM
Cc1cc(F)c(O)c(C)c1-n1c(N)c(C(N)=O)c2cc(OC3CCC3)c(C)nc21 [Example 96]	9.4 nM
Cc1ccc(O)c(C)c1-n1c(N)c(C(N)=O)c2cnc(N3CCOCC3)nc21 [Example 34, 6-Amino-7-(3-hydroxy-2,6-dimethylphenyl)-2-morpholino-7H-pyrrolo[2,3-d]pyrimidine-5-carboxamide]	25.7 nM
Cc1c(O)cc(F)c(C)c1-n1c(N)c(C(N)=O)c2cc(C#N)cnc21 [Example 98]	8.11 nM
Cc1ccc(O)c(C)c1-n1c(N)c(C(N)=O)c2cnc(C3CCCCC3)nc21 [Example 10, 6-Amino-2-cyclohexyl-7-(3-hydroxy-2,6-dimethylphenyl)-7H-pyrrolo[2,3-d]pyrimidine-5-carboxamide]	13 nM
Cc1cc2c(C(N)=O)c(N)n(-c3c(C)cc(Br)c(O)c3C)c2nc1C [Example 97]	187 nM
Cc1ccc(O)c(C)c1-n1c(N)c(C(N)=O)c2cnc(C#CC(C)(C)O)nc21 [Example 26, 6-Amino-7-(3-hydroxy-2,6-dimethylphenyl)-2-(3-hydroxy-3-methylbut-1-yn-1-yl)-7H-pyrrolo[2,3-d]pyrimidine-5-carboxamide]	11.3 nM
Cc1nc2c(cc1C(=O)O)c(C(N)=O)c(N)n2-c1c(C)c(O)cc(F)c1C [Example 90]	90.7 nM
Cc1cc(F)c(O)c(C)c1-n1c(N)c(C(N)=O)c2cc(S(C)(=O)=O)c(C)nc21 [Example 168]	4.92 nM
Cc1cc2c(cn1)c(C(N)=O)c(N)n2-c1c(C)ccc(O)c1C [Example 31, 2-Amino-1-(3-hydroxy-2,6-dimethylphenyl)-6-methyl-1H-pyrrolo[3,2-c]pyridine-3-carboxamide]	11.1 nM
Cc1cc(F)c(O)c(C)c1-n1c(N)c(C(N)=O)c2cc(C3CCOCC3)c(C)nc21 (atropisomer, axis not shown) [Example 163.1]	5.7 nM
Cc1cc(F)c(O)c(C)c1-n1c(N)c(C(N)=O)c2cc(C3=CCOCC3)c(C)nc21 (atropisomer, axis not shown) [Example 175]	4.8 nM
Cc1cc(F)c(O)c(C)c1-n1c(N)c(C(N)=O)c2cc3ccccc3nc21 [Example 180]	30.5 nM
Cc1ncc2c(C(N)=O)c(N)n(-c3c(C)c(O)cc(F)c3C)c2c1F (atropisomer, axis not shown) [Example 71.1]	4.29 nM
Cc1ccc(O)c(C)c1-n1c(N)c(C(N)=O)c2cnccc21 [Example 30, 2-Amino-1-(3-hydroxy-2,6-dimethylphenyl)-1H-pyrrolo[3,2-c]pyridine-3-carboxamide]	13.7 nM

Structure (SMILES)	IC50
CCCc1ncc2c(C(N)=O)c(N)n(-c3c(C)ccc(O)c3C)c2n1 [Example 87]	3.35 nM
Cc1cc2c(C(N)=O)c(N)n(-c3c(C)cnc(O)c3C)c2nc1C [Example 50, 2-Amino-1-(2-hydroxy-3,5-dimethylpyridin-4-yl)-5,6-dimethyl-1H-pyrrolo[2,3-b]pyridine-3-carboxamide]	220 nM
CCc1nc(C)nc2c1c(C(N)=O)c(N)n2-c1c(C)ccc(O)c1C (atropisomer, axis not shown) [Example 66.1]	16.5 nM
Cc1ccc(O)c(C)c1-n1c(N)c(C(N)=O)c2cncnc21 [Example 45, 6-Amino-7-(3-hydroxy-2,6-dimethylphenyl)-7H-pyrrolo[2,3-d]pyrimidine-5-carboxamide]	10.8 nM
Cc1ccc(O)c(C)c1-n1c(N)c(C(N)=O)c2cnc(N(C)C)nc21 [Example 36, 6-Amino-2-(dimethylamino)-7-(3-hydroxy-2,6-dimethylphenyl)-7H-pyrrolo[2,3-d]pyrimidine-5-carboxamide]	17.4 nM
Cc1cc(F)c(O)c(C)c1-n1c(N)c(C(N)=O)c2cc(OC(C)C)c(C)nc21 [Example 160]	7.85 nM
CCc1nc(C)nc2c1c(C(N)=O)c(N)n2-c1c(C)c(O)cc(F)c1C [Example 61]	38.6 nM
C=Cc1cc2c(C(N)=O)c(N)n(-c3c(C)cc(F)c(O)c3C)c2nc1C (single isomer, unassigned) [Example 142.1]	10.1 nM
Cc1ncc2c(C(N)=O)c(N)n(-c3c(C)c(O)cc(F)c3C)c2n1 (racemic) [Example 63]	5.14 nM
Cc1cc2c(C(N)=O)c(N)n(-c3c(C)c(C)cc(O)c3C)c2nc1C [Example 53, 2-Amino-1-(3-hydroxy-2,5,6-trimethylphenyl)-5,6-dimethyl-1H-pyrrolo[2,3-b]pyridine-3-carboxamide]	194 nM
C=C(C)c1cnc2c(c1)c(C(N)=O)c(N)n2-c1c(C)cc(F)c(O)c1C [Example 155]	23.2 nM
CC(C)=Cc1ncc2c(C(N)=O)c(N)n(-c3c(C)ccc(O)c3C)c2n1 [Example 42, 6-Amino-7-(3-hydroxy-2,6-dimethylphenyl)-2-(2-methylprop-1-en-1-yl)-7H-pyrrolo[2,3-d]pyrimidine-5-carboxamide]	6.62 nM
Cc1cc(F)c(O)c(C)c1-n1c(N)c(C(N)=O)c2cc3c(nc21)CCCC3 (racemic) [Example 177]	34.7 nM
Cc1ccc(O)c(C)c1-n1c(N)c(C(N)=O)c2cc3c(nc21)OCCO3 (racemic) [Example 188]	10.5 nM
COC(C)(C)c1cc2c(C(N)=O)c(N)n(-c3c(C)cc(F)c(O)c3C)c2nc1C [Example 171]	26.8 nM
Cc1ccc(O)c(C)c1-n1c(N)c(C(N)=O)c2cnc(C#CC(C)(C)F)nc21 [Example 27]	7.15 nM
Cc1cnc2c(c1)c(C(N)=O)c(N)n2-c1c(C)c(O)cc(F)c1C [Example 89]	3 nM
Cc1cc2c(C(N)=O)c(N)n(-c3c(C)cc(F)c(O)c3C)c2nc1Cl [Example 74]	7.11 nM
[2H]C([2H])([2H])c1nc2c(cc1C(F)(F)F)c(C(N)=O)c(N)n2-c1c(C)cc(F)c(O)c1C (racemic) [Example 194]	6.36 nM
C#Cc1ncc2c(C(N)=O)c(N)n(-c3c(C)ccc(O)c3C)c2n1 [Example 47, 6-Amino-2-ethynyl-7-(3-hydroxy-2,6-dimethylphenyl)-7H-pyrrolo[2,3-d]pyrimidine-5-carboxamide]	12.9 nM
Cc1cc(F)c(O)c(C)c1-n1c(N)c(C(N)=O)c2c3c(c(C)nc21)CCC3 (racemic) [Example 176]	9.81 nM
Cc1cc(F)c(O)c(C)c1-n1c(N)c(C(N)=O)c2cc(N3CCCC3)c(C)nc21 (atropisomer, axis not shown) [Example 162.1]	9.1 nM
Cc1cc(F)c(O)c(C)c1-n1c(N)c(C(N)=O)c2cc(N3CCCC3)c(C)nc21 (racemic) [Example 162]	14.5 nM
Cc1ccc(O)c(C)c1-n1c(N)c(C(N)=O)c2cnc(-c3ccccc3)nc21 [Example 11, 6-Amino-7-(3-hydroxy-2,6-dimethylphenyl)-2-phenyl-7H-pyrrolo[2,3-d]pyrimidine-5-carboxamide]	15.7 nM
Cc1ccc(O)c(C)c1-n1c(N)c(C(N)=O)c2c(F)nc(C)c(F)c21 [Example 72]	9.72 nM
C=C(C)c1nc2c(cc1C)c(C(N)=O)c(N)n2-c1c(C)cc(F)c(O)c1C [Example 152]	47.9 nM

Same assay, conditions: read-out: ADP-GLO IC50; PKMYT1 enzyme 10 nM, ATP 5 µM, 37°C 90 minutes

IC50	Structure (SMILES)
9.55 nM	Cc1nc(C)c2c(C(N)=O)c(N)n(-c3c(C)ccc(O)c3C)c2n1 (atropisomer, axis not shown) [Example 19.2]
4.93 nM	Cc1ccc(O)c(C)c1-n1c(N)c(C(N)=O)c2cc3c(nc21)CCO3 (racemic) [Example 190]
